Source: US20260183274A1, “PDK1 REGULATORY COMPOUND AND COMPOSITION CONTAINING THE SAME” (PROVIBIO CO., LTD., priority 2024, published 2026)

How the values were obtained:
[1] = system: Human Kidney Cancer cell line, ACHN; assay: Relative cell viability CCK-8, ACHN; format: cell-based; details: 48 hours
Procedure: Similarly, human-derived cervical cancer cell line HeLa and renal cancer cell line ACHN, obtained from the Korean Cell Bank, were cultured in DMEM medium containing 10% FBS, 100 U/mL penicillin, and 100 μg/mL streptomycin.
(§1) Following stabilization, the cells were harvested using Trypsin-EDTA treatment, centrifuged at 1,200 rpm for 3 minutes, the supernatant was removed, and the cells were resuspended in the same medium. They were then seeded into a 96-well plate (Costar 96-well cell culture plate, Corning) at 100 μL per well, and the conditions were adjusted as indicated in Table 5.
(§2) The cells were cultured in a 5% CO2 incubator at 37° C. for 24 hours, and after stabilization of the cells, each plate was washed with 200 μL of PBS per well and treated with 50 μL of culture medium per well.
The compounds according to the present invention or the control group (DMSO) were added at concentrations of 0, 10, 30, and 50 μM in 50 μL aliquots to the plates, and the plates were cultured at 37° C. in a 5% CO2 incubator for 48 hours.
(§3) After that, 10 μL of CCK-8 was added to each well, and the plate was incubated again at 37° C. in a 5% CO2 incubator for 2 hours.
(§4) In other words, when the survival rate of untreated cells (DMSO) is set at 100%, the relative cell survival rate in each group treated with the drug at different concentrations is indicated.

[2] = system: Human multiple myeloma, KMS34; assay: Relative cell viability, KMS34; format: cell-based; details: KMS34 cells, 1 μM, relative to untreated cells
Procedure: as §3, §4

[3] = system: Human Gastric cancer cell, SNU-719; assay: Relative cell viability CCK-8, SNU-719; format: cell-based; details: 48 hours
Procedure: (§5) Human-derived breast cancer cell line MCF-7, human-derived lung cancer cell line A549, human-derived colorectal cancer cell line HCT-116, human pancreatic cancer cell line AsPC-1, glioblastoma cell line A172, and melanoma cell line Malme-3M were obtained from the Korean Cell Bank. gastric cancer cell line SNU-719, and bladder cancer cell line T24 were cultured in RPMI-1640 medium containing 10% FBS.
as §1, §2, §3, §4

[4] = biological target: T1, full-length PDK1 (PDK1-FL) (Homo sapiens, UniProt O15530); assay: Microscale Thermophoresis (MST) binding affinity, full-length PDK1
T1 construct: the full-length (PDK1-FL) protein of human-derived PDK1; inferred from Ni-NTA purification; made in house; host or cells: Sf9 insect cells, baculovirus expression system
Procedure: Microscale Thermophoresis (MST) analysis was performed to quantitatively measure the binding affinity between PDK1 protein and substrate peptides (PDKTide) or the company-developed low-molecular-weight compound (GO88).
The target proteins were the full-length (PDK1-FL) protein of human-derived PDK1 and the Protein Kinase Domain (PKD) fragment, which were expressed using a baculovirus expression system in insect cell lines (Sf9).
The purity of the purified proteins was confirmed by SDS-PAGE and Coomassie Brilliant Blue staining.
The purified protein was labeled with a fluorescent label using the Monolith NT™ RED-NHS Protein Fluorescent Labeling Kit (NanoTemper).
Specifically, 20 μM of the protein was dissolved in PBS (pH 7.4) buffer, mixed with the fluorescent reagent, and reacted at room temperature under dark conditions for 30 minutes. The mixture was then buffered with MST analysis buffer (50 mM HEPES, 150 mM NaCl, 1 mM DTT, 0.05% Tween-20, pH 7.5). […]
The reaction samples were injected into an MST-specific capillary (NanoTemper) and analyzed using a Monolith NT.115 device (NanoTemper) under laser intensity conditions. […]
The measured data were analyzed using MO.Affinity Analysis software (NanoTemper), and the dissociation constant (Kd) was calculated from the binding curve.

[5] = system: Human Pancreas Adenocarcinoma cell line, AsPC-1; assay: Relative cell viability CCK-8, AsPC-1; format: cell-based; details: 48 hours; for viability at 1 µM: ASPC1, 1 μM; for viability at 10 µM: ASPC1, 10 μM; for viability at 30 µM: ASPC1, 30 μM; for viability at 50 µM: ASPC1, 50 μM
Procedure: as §5, §1, §2, §3, §4

[6] = system: NHDF (Normal Human Dermal Fibroblast) cells; assay: Doxorubicin/IGF-1 induced aging of NHDF cells (SA-β-gal, Ki-67 FACS); format: cell-based; details: 0.01, 1 μM; Doxorubicin 100 ng/ml + IGF-1 100 ng/ml, 7 days; FIG. 39
Procedure: To confirm the anti-aging and rejuvenating effects of the compound GO15F of the present invention, a NHDF (Normal Human Dermal Fibroblast, Promocell) cell model was established by inducing aging with doxorubicin (Doxorubicin), and β-galactosidase activity and Ki-67 expression were analyzed in the cells. First, NHDF cells were seeded at 1×10^4 cells per well in a 12-well plate and stabilized for 24 hours. […] After pre-incubation, the medium was removed, and the cells were cultured for 7 days in medium containing Doxorubicin (100 ng/ml) and IGF-1 (100 ng/ml) with GO15F. During this process, the medium was replaced with fresh medium every 2 days. The cultured cells were washed with PBS, fixed with 1× fixation buffer for 15 minutes, washed again with PBS, and then 300 μL of 1× working SA-β-gal buffer was added to each well. The cells were incubated at 37° C. for 24 hours. After the reaction was terminated, the cells were washed with PBS, and the […] of β-gal-positive cells stained blue was observed and photographed using a light microscope. Additionally, to investigate the effect of the compound (GO15F) of the present invention on proliferation activity in aging-induced NHDF (Normal Human Dermal Fibroblast) cells, Ki-67 expression was measured via FACS analysis. First, NHDF cells were seeded at 1×10^4 cells per well in a 12-well plate and stabilized for 24 hours. […]

[7] = system: Human multiple myeloma, KMS12PE; assay: Relative cell viability, KMS12PE; format: cell-based; details: KMS-12-PE
Procedure: as §3, §4

T1 sequence (O15530 whole entry): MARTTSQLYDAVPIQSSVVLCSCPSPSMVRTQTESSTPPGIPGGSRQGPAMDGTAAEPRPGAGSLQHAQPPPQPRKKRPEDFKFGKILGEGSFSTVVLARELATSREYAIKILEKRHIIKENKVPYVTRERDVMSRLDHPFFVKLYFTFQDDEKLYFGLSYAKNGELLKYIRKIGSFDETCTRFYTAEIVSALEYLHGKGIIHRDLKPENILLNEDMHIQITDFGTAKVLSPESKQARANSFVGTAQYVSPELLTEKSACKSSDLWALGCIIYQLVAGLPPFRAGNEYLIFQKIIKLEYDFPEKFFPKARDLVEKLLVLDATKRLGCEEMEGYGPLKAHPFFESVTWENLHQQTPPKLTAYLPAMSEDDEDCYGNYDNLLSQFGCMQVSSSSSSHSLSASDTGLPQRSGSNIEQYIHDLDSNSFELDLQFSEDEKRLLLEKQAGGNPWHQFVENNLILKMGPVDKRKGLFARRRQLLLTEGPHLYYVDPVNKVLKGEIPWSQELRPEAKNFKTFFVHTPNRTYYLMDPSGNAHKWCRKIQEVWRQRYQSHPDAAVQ

With `Nc1ncccc1C(=O)NCCCCCCCCCCCCN1CCNCC1` [Compound 5, 2-Amino-N-(12-(piperazin-1-yl)dodecyl)-nicotinamide] the viability at 1 µM [1] was 29.5%, the viability at 10 µM [1] was 30% and the viability at 30 µM [1] was 29.2%. It also gave a viability at 50 µM [1] of 28.3%.

`CC1(C)CN(CCCCCCCCCCCCC(=O)Nc2nc(N)c3[nH]cnc3n2)CCO1` [Compound 11, 12-[4-(2,2-dimethylmorpholin-4-yl)]dodecyl-N-(6-aminopurine-2-yl) carboxamide] was tested, and the “Relative cell viability (%)” value [2] was 26.19%.

`Nc1ncccc1C(=O)NCCCCCCCCCCCCN1CCNCC1` [Compound 14, 2-Amino-N-(12-(piperazin-1-yl)dodecyl)nicotinamide] gave a viability at 1 µM ([3]; 1 μM) of 49.9%, a viability at 10 µM ([3]; 10 μM) of 47.8% and a viability at 30 µM ([3]; 30 μM) of 44.4%. For the same compound, the viability at 50 µM ([3]; 50 μM) was 45.5%, the Kd ([4]; FIG. 48, read-out: Dissociation constant (Kd), full-length PDK1) was ~0.0584 µM and the “Binding affinity of full-length PDK1 compared to the PKD fragment” value ([4]; ratio of Kd values) was “approximately six times stronger binding affinity”. It also gave a viability at 1 µM [5] of 43.1%, a viability at 10 µM [5] of 45.4% and a viability at 30 µM [5] of 36.8%. For the same compound, the viability at 50 µM [5] was 30.5%.

For `Nc1nc(NC(=O)CCCCCCCCCCCCN2CCN(CCO)CC2)nc2nc[nH]c12` [Compound 15, 12-[4-(2-hydroxyethyl)piperazin-1-yl]dodecyl-N-(6-aminopurine-2-yl) carboxamide], the viability at 1 µM [1] was 31.7%, the viability at 10 µM [1] was 30% and the viability at 30 µM [1] was 30.6%. It also gave a viability at 50 µM [1] of 30.3%, a viability at 1 µM [5] of 40.9% and a viability at 10 µM [5] of 42.8%. It also gave a viability at 30 µM [5] of 44.1% and a viability at 50 µM [5] of 41.5%.

In the case of `Nc1ncccc1C(=O)NCCCCCCCCCCCCF` [Compound 57, 2-Amino-N-(12-fluoro-dodecyl)-nicotinamide], the “Number of β-gal-positive cells (SA-β-gal)” value [6] is reported as “the number of β-gal-positive cells decreased” and the viability at 10 µM [7] is reported as 41.7%.
